{"source": "ChEMBL document CHEMBL6121007", "about": "“Design, synthesis and evaluation of pyrimidine derivatives as sedative-hypnotic agents” (Eur J Med Chem, 2025)", "key": {"[1]": {"test_system": "Mus musculus", "assay": "Sedative-hypnotic activity in mouse assessed as decrease in number of square crossing at 50 mg/kg, ip administrated as single dose and measured after 30 mins by open field test", "format": "functional, organism-based"}, "[2]": {"test_system": "Mus musculus", "assay": "Sedative-hypnotic activity in mouse assessed as latency time of first step out of center square at 50 mg/kg, ip administrated as single dose and measured after 30 mins by open field test", "format": "functional, organism-based"}, "[3]": {"test_system": "Mus musculus", "assay": "Sedative-hypnotic activity in mouse assessed as decrease in number of square crossing at 0.1 to 0.5 mg/kg, ip administrated as single dose and measured within 3 mins by open field test", "format": "functional, organism-based", "details": "dose 0.1-0.5 mg/kg"}, "[4]": {"test_system": "Mus musculus", "assay": "Sedative-hypnotic activity in mouse assessed as increase in latency time of first step out of center square at 0.1 to 2.5 mg/kg, ip administrated as single dose and measured after 30 mins by open field test", "format": "functional, organism-based", "details": "dose 0.1-2.5 mg/kg"}, "[5]": {"test_system": "Mus musculus", "assay": "Sedative-hypnotic activity in pentobarbital-induced mouse assessed as asleep rate at 0.5 to 2.5 mg/kg, ip preadministered with compound for 20 mins followed by pentobarbital administration and measured within 15 mins (reference value: 12.5 %)", "format": "functional", "details": "dose 0.5-2.5 mg/kg, time <= 35 min"}, "[6]": {"test_system": "Mus musculus", "assay": "Sedative-hypnotic activity in pentobarbital-induced mouse assessed as decrease in sleep latency at 0.5 to 2.5 mg/kg, ip administrated as single dose", "format": "functional, organism-based", "details": "dose 0.5-2.5 mg/kg"}, "[7]": {"test_system": "Mus musculus", "assay": "In vivo activation of cAMP/PKA/CREB signaling pathway in mouse assessed as increase in cAMP level in hypothalamus at 2.5 mg/kg, ip measured after 30 mins by ELISA analysis", "format": "functional, organism-based"}, "[8]": {"test_system": "Mus musculus", "assay": "In vivo activation of cAMP/PKA/CREB signaling pathway in mouse assessed as increase in PKA expression in hypothalamus at 2.5 mg/kg, ip measured after 30 mins by Western blot analysis", "format": "functional, organism-based"}, "[9]": {"assay": "Tmax in male Sprague-Dawley rat at 2.5 mg/kg, ip measured after 5 to 1440 mins by LC-MS/MS analysis", "format": "ADME, organism-based", "details": "in vivo, time 5-1440 min"}, "[10]": {"assay": "Cmax in male Sprague-Dawley rat at 2.5 mg/kg, ip measured after 5 to 1440 mins by LC-MS/MS analysis", "format": "ADME, organism-based", "details": "in vivo, time 5-1440 min"}, "[11]": {"assay": "MRT (0 to infinity) in male Sprague-Dawley rat at 0.5 mg/kg, iv measured after 2 to 720 mins by LC-MS/MS analysis", "format": "ADME, organism-based", "details": "in vivo, time 2-720 min"}, "[12]": {"assay": "Apparent volume of distribution in male Sprague-Dawley rat at 0.5 mg/kg, iv measured after 2 to 720 mins by LC-MS/MS analysis", "format": "ADME, organism-based", "details": "in vivo, time 2-720 min, read-out: Vd(app)"}, "[13]": {"assay": "Drug concentration in male mouse plasma at 10 mg/kg, ip measured after 2 hrs by LC-MS/MS analysis", "format": "ADME, organism-based"}, "[14]": {"assay": "Drug concentration in male mouse brain at 10 mg/kg, ip measured after 4 hrs by LC-MS/MS analysis", "format": "ADME, organism-based", "details": "read-out: Ct"}, "[15]": {"test_system": "Mus musculus", "assay": "Sedative-hypnotic activity in pentobarbital-induced mouse assessed as decrease in sleep latency at 0.2 to 5 mg/kg, ip", "format": "functional, organism-based", "details": "dose 0.2-5 mg/kg"}, "[16]": {"test_system": "Mus musculus", "assay": "Sedative-hypnotic activity in pentobarbital-induced mouse assessed as asleep rate at 0.5 to 0.1 mg/kg, ip preadministered with compound for 20 mins followed by pentobarbital administration and measured within 15 mins (reference value: 12.5 %)", "format": "functional", "details": "dose 0.5-0.1 mg/kg, time <= 35 min, at 0.1 to 0.5 mg/kg"}, "[17]": {"test_system": "Mus musculus", "assay": "Upregulation of apoptosis related genes in hypothalamus of mouse at 2.5 mg/kg, ip measured after 30 mins by KEGG enrichment analysis relative to control", "format": "functional", "details": "0.5 h"}, "[18]": {"test_system": "Mus musculus", "assay": "Upregulation of gap junction related genes in hypothalamus of mouse at 2.5 mg/kg, ip measured after 30 mins by KEGG enrichment analysis relative to control", "format": "functional", "details": "0.5 h"}, "[19]": {"test_system": "Mus musculus", "assay": "Upregulation of cell cycle related genes in hypothalamus of mouse at 2.5 mg/kg, ip measured after 30 mins by KEGG enrichment analysis relative to control", "format": "functional", "details": "0.5 h"}, "[20]": {"assay": "Upregulation of focal adhesion related genes in hypothalamus of mouse at 2.5 mg/kg, ip measured after 30 mins by KEGG enrichment analysis relative to control", "format": "functional", "details": "0.5 h"}, "[21]": {"assay": "Upregulation of cytokine-cytokine receptor interaction related genes in hypothalamus of mouse at 2.5 mg/kg, ip measured after 30 mins by KEGG enrichment analysis relative to control", "format": "functional", "details": "0.5 h"}, "[22]": {"assay": "Upregulation of MAPK signaling pathway related genes in hypothalamus of mouse at 2.5 mg/kg, ip measured after 30 mins by KEGG enrichment analysis relative to control", "format": "functional", "details": "0.5 h"}, "[23]": {"assay": "Upregulation of FoxO signaling pathway related genes in hypothalamus of mouse at 2.5 mg/kg, ip measured after 30 mins by KEGG enrichment analysis relative to control", "format": "functional", "details": "0.5 h"}, "[24]": {"assay": "Upregulation of mTOR signaling pathway related genes in hypothalamus of mouse at 2.5 mg/kg, ip measured after 30 mins by KEGG enrichment analysis relative to control", "format": "functional", "details": "0.5 h"}, "[25]": {"test_system": "Mus musculus", "assay": "Upregulation of lipid and atherosclerosis related genes in hypothalamus of mouse at 2.5 mg/kg, ip measured after 30 mins by KEGG enrichment analysis relative to control", "format": "functional", "details": "0.5 h"}, "[26]": {"assay": "Upregulation of human papillomavirus infection related genes in hypothalamus of mouse at 2.5 mg/kg, ip measured after 30 mins by KEGG enrichment analysis relative to control", "format": "functional", "details": "0.5 h"}, "[27]": {"assay": "Upregulation of herpes simplex virus 1 infection related genes in hypothalamus of mouse at 2.5 mg/kg, ip measured after 30 mins by KEGG enrichment analysis relative to control", "format": "functional", "details": "0.5 h"}, "[28]": {"test_system": "Mus musculus", "assay": "Upregulation of neurodegeneration-multiple diseases pathways related genes in hypothalamus of mouse at 2.5 mg/kg, ip measured after 30 mins by KEGG enrichment analysis relative to control", "format": "functional", "details": "0.5 h"}, "[29]": {"assay": "Upregulation of human T-cell leukemia virus 1 infection related genes in hypothalamus of mouse at 2.5 mg/kg, ip measured after 30 mins by KEGG enrichment analysis relative to control", "format": "functional", "details": "0.5 h"}, "[30]": {"assay": "Upregulation of cushing syndrome related genes in hypothalamus of mouse at 2.5 mg/kg, ip measured after 30 mins by KEGG enrichment analysis relative to control", "format": "functional", "details": "0.5 h"}, "[31]": {"test_system": "Mus musculus", "assay": "Upregulation of arachidonic acid metabolism related genes in hypothalamus of mouse at 2.5 mg/kg, ip measured after 30 mins by KEGG enrichment analysis relative to control", "format": "functional", "details": "0.5 h"}, "[32]": {"test_system": "Mus musculus", "assay": "Upregulation of circadian entrainment related genes in hypothalamus of mouse at 2.5 mg/kg, ip measured after 30 mins by KEGG enrichment analysis relative to control", "format": "functional", "details": "0.5 h"}, "[33]": {"test_system": "Mus musculus", "assay": "Upregulation of glycerolipid metabolism related genes in hypothalamus of mouse at 2.5 mg/kg, ip measured after 30 mins by KEGG enrichment analysis relative to control", "format": "functional", "details": "0.5 h"}, "[34]": {"test_system": "Mus musculus", "assay": "Upregulation of parathyroid hormone secretion related genes in hypothalamus of mouse at 2.5 mg/kg, ip measured after 30 mins by KEGG enrichment analysis relative to control", "format": "functional", "details": "0.5 h"}, "[35]": {"test_system": "Mus musculus", "assay": "Upregulation of threonine metabolism related genes in hypothalamus of mouse at 2.5 mg/kg, ip measured after 30 mins by KEGG enrichment analysis relative to control", "format": "functional", "details": "0.5 h"}}, "note": "The source made the active and inactive calls. The rule behind the calls is not given here.", "data": [{"smiles": "CCn1c2ccccc2c2cc(Nc3ccnc(Nc4ccc(C)c(OC)c4)n3)ccc21", "values": [{"measurement": "Activity", "setting": "[1]", "result": "Active"}, {"measurement": "Activity", "setting": "[2]", "result": "Active; Significant Effect Observed"}, {"measurement": "Activity", "setting": "[3]", "result": "Active; No Significant Difference Compared With Control Mouse"}, {"measurement": "Activity", "setting": "[4]", "result": "Active"}, {"measurement": "Activity", "setting": "[5]", "result": 100, "unit": "%"}, {"measurement": "Activity", "setting": "[6]", "result": "Active"}, {"measurement": "Activity", "setting": "[7]", "result": "Active"}, {"measurement": "Activity", "setting": "[8]", "result": "Active"}, {"measurement": "Tmax", "setting": "[9]", "result": 4, "unit": "h"}, {"measurement": "Cmax", "setting": "[10]", "result": 281, "unit": "ng/mL"}, {"measurement": "MRT inf", "setting": "[11]", "result": 3.47, "unit": "h"}, {"measurement": "Vd", "setting": "[12]", "result": 2.9, "unit": "L/kg"}, {"measurement": "concentration at 2 h", "setting": "[13]", "result": 60.4, "unit": "ng/mL"}, {"measurement": "concentration at 4 h", "setting": "[14]", "result": 20.2, "unit": "ng/mL"}, {"measurement": "Activity", "setting": "[15]", "result": "Active"}, {"measurement": "Activity", "setting": "[16]", "result": 75, "unit": "%"}, {"measurement": "Activity", "setting": "[17]", "result": 3.47, "unit": "%"}, {"measurement": "Activity", "setting": "[18]", "result": 2.89, "unit": "%"}, {"measurement": "Activity", "setting": "[19]", "result": 2.89, "unit": "%"}, {"measurement": "Activity", "setting": "[20]", "result": 2.89, "unit": "%"}, {"measurement": "Activity", "setting": "[21]", "result": 8.09, "unit": "%"}, {"measurement": "Activity", "setting": "[22]", "result": 6.36, "unit": "%"}, {"measurement": "Activity", "setting": "[23]", "result": 4.62, "unit": "%"}, {"measurement": "Activity", "setting": "[24]", "result": 3.47, "unit": "%"}, {"measurement": "Activity", "setting": "[25]", "result": 7.51, "unit": "%"}, {"measurement": "Activity", "setting": "[26]", "result": 6.36, "unit": "%"}, {"measurement": "Activity", "setting": "[27]", "result": 5.78, "unit": "%"}, {"measurement": "Activity", "setting": "[28]", "result": 5.78, "unit": "%"}, {"measurement": "Activity", "setting": "[29]", "result": 4.62, "unit": "%"}, {"measurement": "Activity", "setting": "[30]", "result": 4.05, "unit": "%"}, {"measurement": "Activity", "setting": "[31]", "result": 2.89, "unit": "%"}, {"measurement": "Activity", "setting": "[32]", "result": 3.47, "unit": "%"}, {"measurement": "Activity", "setting": "[33]", "result": 2.31, "unit": "%"}, {"measurement": "Activity", "setting": "[34]", "result": 4.05, "unit": "%"}, {"measurement": "Activity", "setting": "[35]", "result": 1.73, "unit": "%"}]}]}
